Legend:
[1] = tested on: SCNT eggs (F/T SCNT); assay: Comet assay for DNA breaks; type: cell-based, mice; details: SCNT+RS-1 group vs SCNT group; FIG. 6
Description: In detail, to examine DNA damage, each sample in a 1 ml tube from which a culture medium was removed was suspended in 1% agarose at 37° C., and then fixed on a pre-coated slide (Trevigen). The slide was incubated at 4° C. for 4 hr, and then immersed in a solution (Trevigen) at 4° C. for 4 hr. The slide was removed from the lysis solution, and immersed in a 1×TAE buffer at 4° C. for 30 min, followed by electrophoresis for 30 min to 40 min. The slide was immersed in 1 M ammonium acetate at room temperature for 30 min, and then fixed at […] After fixing at room temperature for 30 min, incubation was performed at 42° C. for 20 min until agarose was completely dried. Thereafter, staining was performed using a 1×SYBR green I staining solution for 5 min.

[2] = tested on: blastocysts of SCNT eggs; assay: Embryonic stem cell establishment from SCNT blastocysts; type: cell-based, mouse; details: SCNT+RS-1 blastocysts on MEF feeder cells; non-RS-1 treated group 17%; FIG. 9B
Description: In detail, blastocysts of each group was cultured on mouse embryonic fibroblast (MEF cells) feeder cells in a mouse embryonic stem cell culture medium. 20% KSR, 0.1 mM β-mercaptoethanol, 1% non-essential amino acids, 100 units/ml penicillin, 100 μg/ml streptomycin (all products available from GIBCO), 1.5×10^3 units/ml of recombination mLif (Chemicon) were used in the culture medium. Subculture was performed using Trypsin-EDTA, and the established embryonic stem cells of somatic cell cloned mice were treated with alkaline phosphatase. The established stem cells were evaluated by histochemical staining.

[3] = tested on: SCNT eggs (F/T SCNT); assay: LC3B (autophagy) and MitoTracker (mitochondria) staining of eggs; type: cell-based, mice; details: 2-cell stage; SCNT+RS-1 group; FIG. 3B
Description: In detail, to evaluate mitochondria distribution, SCNT-derived somatic cell cloned eggs at the 1-cell stage, 2-cell stage, and 4-cell stage were stained using MitoTracker Orange CMTMRos (Molecular Probes). Mitotracker was used at a concentration of 300 nM in an M16 culture medium supplemented with 0.3% BSA at 37° C. for 30 min in the dark. After washing, the oocytes were fixed and immunofluorescently stained with LC3B antibody and then nuclei were stained with DAPI.

[4] = tested on: SCNT eggs (F/T SCNT); assay: CellROX reactive oxygen species staining of eggs at the 2-cell stage; type: cell-based, mice; details: SCNT+RS-1 group, FIG. 5A
Description: In detail, IVF group, SCNT+RS-1 group, and SCNT group at the 2-cell stage were incubated at 37° C. for 30 min in the dark in a culture medium supplemented with 5 μM of CellROX oxidative stress reagent for 30 min. Thereafter, each group was washed with 0.1% PVA-added D-PBS, and nuclei were stained with Hoechst (Sigma).

[5] = tested on: surrogate female ICR mice
Excerpt: It is reported that a success rate of cloned mouse production is generally about 1% after normal somatic cell cloning. Therefore, implantation and cloned pups formation rates of mice were examined according to treatment of SCNT eggs with RS-1. In detail, SCNT and SCNT+RS-1 oocytes at the 2-cell stage were implanted into the uterus of surrogate female ICR mice at 0.5 days after pseudopregnancy. At 19.5 days after implantation, the somatic cell cloned mice were separated from the uterus of the surrogate mother, and then the cloned mice were nurtured together with normal ICR mice born on the same day by ICR mice smeared with the smell of the surrogate mother.

[6] = tested on: SCNT eggs (F/T SCNT); assay: Embryonic development of SCNT eggs cultured with RS-1 (somatic cell cloning efficiency); type: cell-based, mice; details: for Number of embryos at 2-cell stage (%)+: based on the number of reconstructed oocytes; for Number of embryos at 4-cell stage (%)# / Number of blastocysts (%)# / Number of embryos at 2-cell stage block (%)#: based on the number of embryos at 2-cell stage
Description: 5IU PMSG and 5IU hCG hormone were administered into 8-week to 10-week-old female BDF/1 mice. 14 hr after hCG administration, cumulus cells were isolated from superovulated mice using hyaluronidase and eggs were collected. The isolated cumulus cells were refrigerated for use as somatic cell for donor cells, and the isolated eggs were stored in a KSOM culture medium in an incubator at 37° C. until experiments started. Thereafter, to carry out a somatic cell cloning experiment, nuclei were removed from matured eggs, and cumulus cells isolated in advance were directly injected as donor cells. The cumulus cells injected as donor cells were artificially activated in a culture medium containing a Rad51-stimulatory compound 1 (RS-1) for 6 hr. Thereafter, the cells were incubated in the culture medium containing RS-1 reagent for 22 hr. 22 hr later, the cells were incubated in a KSOM culture medium for 72 hr to 96 hr.
First, to examine whether RS-1 induced toxicity to egg development, IVF eggs and SCNT eggs (F/T SCNT) of Example 1 were treated with 0 μM, 1 μM, 5 μM, and 10 μM of RS-1, respectively, and an appropriate concentration was selected.

[7] = tested on: SCNT eggs; assay: RNA sequencing of cloned eggs at the 2-cell stage; type: cell-based, mouse; details: SCNT+RS-1 group
Description: To examine the effect of RS-1 treatment on SCNT eggs, RS-1 was treated to cloned eggs at the 2-cell stage during the somatic cell cloning procedure of Example 1, followed by RNA sequencing. At this time, IVF eggs were used as a negative control group. In detail, complementary DNA (cDNA) was amplified using a SMARTer ultra-low input RNA Kit for cDNA preparation (Takara, 634890) according to the manufacturer's instructions. cDNA was fragmented into about 200 bp fragments using a M220 sonicator (Covaris). The fragmented cDNAs were subjected to end-repair, and an adapter was ligated thereto. Sequencing libraries were prepared using a ScriptSeq v2 kit (Illumina) according to the manufacturer's instructions. Single-end sequencing was performed in HiSeq2500 (Illumina), and mapped to the mm9 mouse genome using STAR (v2.5.2b, https://github.com/alexdobin/STAR). Subsequently, […] (FPKM) was calculated by cuff link (v2.2.1) with default options.
To examine cloning mechanisms in the RS-1-treated SCNT egg (SCNT+RS-1) of Example 3 and the cloned egg (SCNT+Kdm4a) injected with Kdm4a mRNA during SCNT of Example 2, genes expressed in each egg were examined in the same manner as in Example 8.

[8] = tested on: SCNT eggs (F/T SCNT); assay: Immunostaining of DNA damage biomarker rH2AX and Rad51; type: cell-based, mice
Description: In detail, IVF group, SCNT group, and SCNT+RS-1 group fixed in 4% paraformaldehyde were arrested at the 1-cell stage, 2-cell stage, and 4-cell stage, and then incubated with rH2AX (Abcam, ab22551) Rad51 (Abcam, ab63801) for 2 hr, followed by incubation in the presence of goat anti-mouse antibody diluted with PBS/0.1% BSA at 1:200, and goat anti-rabbit antibody at the same concentration for 1 hr. Thereafter, nuclei were stained with DAPI.

For `O=C(Nc1ccc(Br)cc1)c1ccc(Br)c(S(=O)(=O)NCc2ccccc2)c1` [RS-1, 3-[(benzylamino)sulfonyl]-4-bromo-N-(4-bromophenyl)benzamide], the “DNA breaks (length of 3'-end, comet assay)” value [1] was “DNA breaks were decreased”, the “generation of the abnormal 3'-end” value [1] was “significantly reduced” and the “induction rate of embryonic stem cells” value [2] was 45%. The “autophagy (LC3B) and mitochondria (mitotracker) expression pattern” value [3] was “intensive autophagy and mitochondria expression in the nucleus”, the “reactive oxygen species in the nuclei” value [4] was “tended to increase” and the “production rate of cloned mouse” value ([5]; SCNT+RS-1 oocytes at the 2-cell stage implanted into surrogate ICR mice, generally about 1% after normal cloning, FIG. 9A) was 5%. For the same compound, the toxicity during development ([5]; mouse, in vivo) was “no toxicity problem”, the “Number of embryos at 2-cell stage (%)+” value ([6]; RS-1 1 μM, 45 NT oocytes) was 42% and the “Number of embryos at 4-cell stage (%)#” value ([6]; RS-1 1 μM) was 35%. The “Number of blastocysts (%)#” value ([6]; RS-1 1 μM) was 8(19) %, the “Number of embryos at 2-cell stage block (%)#” value ([6]; RS-1 1 μM) was 7(16.7) % and the “Number of embryos at 2-cell stage (%)+” value ([6]; RS-1 5 μM, 46 NT oocytes) was 43%. The “Number of embryos at 4-cell stage (%)#” value ([6]; RS-1 5 μM) was 36%, the “Number of blastocysts (%)#” value ([6]; RS-1 5 μM) was 18(41.9) % and the “Number of embryos at 2-cell stage block (%)#” value ([6]; RS-1 5 μM) was 7(16.3) %. For the same compound, the “Number of embryos at 2-cell stage (%)+” value ([6]; RS-1 10 μM, 54 NT oocytes) was 50%, the “Number of embryos at 4-cell stage (%)#” value ([6]; RS-1 10 μM) was 47% and the embryonic development rate ([6]; RS-1 10 μM, control group 31%, Table 1) was 76%. The “Number of blastocysts (%)#” value ([6]; RS-1 10 μM) was 28(56) %, the “Number of embryos at 2-cell stage block (%)#” value ([6]; RS-1 10 μM) was 3(6) % and the embryonic development rate ([6]; treatment with RS-1 during SCNT, FIG. 3A, control group 17%) was 59%. For the same compound, the “number of embryos at the 2-cell stage block” value ([6]; treatment with RS-1 during SCNT, FIG. 3A, control group 39%) was 5%, the “number of genes significantly decreased” value [7] was 414 genes and the “number of genes significantly increased” value [7] was 190 genes. For the same compound, the “DNA damage (rH2AX and Rad51 expression)” value ([8]; 1-cell stage, SCNT+RS-1 group vs SCNT group) was “significant reduction in DNA damage” and the “DNA damage (rH2AX and Rad51 expression)” value ([8]; 2-cell stage block, SCNT+RS-1 group compared with other groups) was “very strong DNA damage in the nucleus”.
